By IC50 is commonly meant the concentration that inhibits the measured activity by half.

The text below walks through data of patent publication US11285227B2, “Trifunctional constructs with tunablepharmacokinetics useful in imaging and anti-tumor therapies” (CORNELL UNIVERSITY, priority 2017, dated 2022).

The target of this test is PSMA on LNCaP cells (Homo sapiens, UniProt Q04609). The experiment in a line: cell-based.
PSMA on LNCaP cells, sequence (Q04609 whole entry): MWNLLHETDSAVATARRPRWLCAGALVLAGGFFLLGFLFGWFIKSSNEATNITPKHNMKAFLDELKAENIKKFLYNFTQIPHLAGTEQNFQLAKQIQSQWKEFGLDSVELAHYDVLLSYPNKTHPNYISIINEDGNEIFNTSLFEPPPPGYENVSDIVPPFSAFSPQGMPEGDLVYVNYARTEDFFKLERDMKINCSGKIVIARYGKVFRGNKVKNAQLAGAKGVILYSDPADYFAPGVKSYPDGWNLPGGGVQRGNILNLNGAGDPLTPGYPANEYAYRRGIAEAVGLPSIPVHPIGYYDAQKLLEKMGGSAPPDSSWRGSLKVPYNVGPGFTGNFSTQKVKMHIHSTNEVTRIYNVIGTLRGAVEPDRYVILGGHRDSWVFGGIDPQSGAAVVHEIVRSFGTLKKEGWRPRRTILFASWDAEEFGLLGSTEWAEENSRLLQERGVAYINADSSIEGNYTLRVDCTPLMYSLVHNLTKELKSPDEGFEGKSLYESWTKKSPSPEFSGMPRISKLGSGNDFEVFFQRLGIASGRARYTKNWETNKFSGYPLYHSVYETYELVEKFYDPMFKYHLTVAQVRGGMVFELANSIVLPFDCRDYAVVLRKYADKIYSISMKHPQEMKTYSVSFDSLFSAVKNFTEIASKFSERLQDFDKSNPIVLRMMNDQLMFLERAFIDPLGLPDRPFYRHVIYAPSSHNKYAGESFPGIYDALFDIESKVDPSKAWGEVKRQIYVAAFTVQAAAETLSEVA

Experimental: The PSMA expressing human prostate cancer cell line, LNCaP, was obtained from the American Type Culture Collection. […] LNCaP cells were maintained in RPMI-1640 medium supplemented with 10% fetal bovine serum (Hyclone), 4 mM L-glutamine, 1 mM sodium pyruvate, 10 mM N-2-hydroxyethylpiperazine-N-2-ethanesulfonic acid (HEPES), 2.5 mg/mL D-glucose, and 50 μg/mL gentamicin in a humidified incubator at 37° C./5% CO2. Cells were removed from flasks for passage or for transfer to 12-well assay plates by incubating them with 0.25% trypsin/ethylenediaminetetraacetic acid (EDTA).
Briefly, LNCaP cells were plated 72 h prior to the experiment to achieve a density of approximately 5×10^5 cells/well (in triplicate) in RPMI-1640 medium supplemented with 0.25% bovine serum albumin. The cells were incubated for 2 h with 1 nM ^99mTc-MIP-1427 in RPMI-1640 medium containing 0.00125% w/v bovine serum albumin [3] in the presence of 0.001-10,000 nM test compounds. Radioactive incubation media was then removed by pipette and the cells were washed twice using 1 mL ice-cold PBS 1× solution. Cells were harvested from the plates following treatment with 1 mL 1M NaOH and transferred to tubes for radioactive counting using a 2470 Wizard^2 Automatic Gamma Counter (Perkin Elmer). […] IC50 values were determined by fitting the data points to a sigmoidal Hills1 curve in Origin software.

The molecule `O=C(O)CC[C@H](NC(=O)N[C@@H](CCCCNC(=O)Nc1cccc(-c2cn(CCOCCOCCOCCC(=O)N[C@@H](CCCCNC(=S)Nc3cc(CN4CCOCCOCCN(Cc5cccc(C(=O)O)n5)CCOCCOCC4)nc(C(=O)O)c3)C(=O)NCCOCCOCCOCCOCCOCCOCCOCCOCCC(=O)N[C@@H](CCCCNC(=O)CCCc3ccc(I)cc3)C(=O)O)nn2)c1)C(=O)O)C(=O)O` [RPS-074, (((S)-1-Carboxy-5-(3-(3-(1-((14S,45S)-45-carboxy-14-(4-(3-(2-carboxy-6-((16-((6-carboxypyridin-2-yl)methyl)-1,4,10,13-tetraoxa-7,16-diazacyclooctadecan-7-yl)methyl)pyridin-4-yl)thioureido)butyl)-54-(4-iodophenyl)-12,15,43,51-tetraoxo-3,6,9,19,22,25,28,31,34,37,40-undecaoxa-13,16,44,50-tetraazatetrapentacontyl)-1H-1,2,3-triazol-4-yl)phenyl)ureido)pentyl)carbamoyl)-L-glutamic acid] displayed an IC50 of 12 ± 3.4 nM.
